Test results reported in patent US10696675B2, “Imidazopyridopyrimidine derivative compound and use thereof” (HANMI PHARMACEUTICAL CO., LTD., priority 2016, dated 2020).

test system: HUH7 cells; assay: Proliferation inhibitory effect for HUH7 cells (SRB assay); type: cell-based; settings: Homo sapiens, Huh-7, 72 hours, GI50, read-out: IC50 HUH7 Cell Line
Procedure: Test Example 2: Measuring Inhibitory Effect of FGFR Inhibitor Using Cell Line
The test was carried out for identifying a proliferation inhibitory effect of the compound of the present invention for HUH7 cells. HUH7 cell lines were counted and 5.0×10^3 cells were inoculated per well in a 96 well plate. After the innoculation, the cells were cultured for 24 hours in a 37 □ and 5% carbon dioxide (CO2) incubator. On the next day, the synthesized compounds were each diluted and prepared. The diluted compounds were introduced to the cell lines inoculated the previous day by concentrations, and reacted for 72 hours in a 37 □ and 5% carbon dioxide (CO2) incubator. However, to a positive control to which the compound was not added, 0.1% dimethyl sulfoxide (DMSO) diluted with a medium was introduced. To a negative control plate, a trichloroacetic acid (TCA) solution was introduced, and fixed at 4 □. After reacting for 72 hours, the medium including the compound was removed, a TCA solution was added thereto, and the cells were fixed for 30 minutes to 60 minutes at 4 □. The TCA solution was discarded, the plate was washed off with distilled water and then dried in the air. A 0.4% sulforhodamin B (SRB) solution was added to the plate and dyed for 10 minutes at room temperature. The plate was washed off with tap water including a 1% acetic acid solution, and then dried in the air. A 10 mM Trizma base solution was added to dissolve the solid SRB. Using a microplate reader, optical density (O.D. value) was measured at 540 nm. A GI50 value of each of the compounds was calculated using GraphPad Prism V6.0 Software.

Compound | IC50
C=CC(=O)Nc1ccccc1Nc1ncc2cc(-c3c(Cl)c(OC)cc(OC)c3Cl)c3nccn3c2n1 [Synthesis Example 6, N-(2-((6-(2,6-dichloro-3,5-dimethoxyphenyl)imidazo[1′,2′:1,6]pyrido[2,3-d]pyrimidin-2-yl)amino)phenyl)acrylamide] | < 50 nM
C=CC(=O)Nc1cccc(C)c1Nc1ncc2cc(-c3cc(OC)cc(OC)c3)c3nccn3c2n1 [compound 8] | > 500 nM
C=CC(=O)Nc1cc(C)ccc1Nc1ncc2cc(-c3c(Cl)c(OC)cc(OC)c3Cl)c3nccn3c2n1 [compound 19] | < 50 nM
COc1cc(OC)c(Cl)c(-c2cc3cnc(-c4cncc(N5CCOCC5)c4)nc3n3ccnc23)c1Cl [compound 81] | > 500 nM
C=CC(=O)Nc1cc(C2CC2)ccc1Nc1ncc2cc(-c3c(Cl)c(OC)cc(OC)c3Cl)c3nccn3c2n1 [compound 21] | 50 to 500 nM
C=CC(=O)Nc1cc(N2CCOCC2)cc(F)c1Nc1ncc2cc(-c3c(Cl)c(OC)cc(OC)c3Cl)c3nccn3c2n1 [compound 67] | 50 to 500 nM
C=CC(=O)NC1COCC1Nc1ncc2cc(-c3c(Cl)c(OC)cc(OC)c3Cl)c3nccn3c2n1 (stereo not shown) [compound 3] | 50 to 500 nM
C=CC(=O)Nc1cc(O[C@@H]2CCOC2)c(C)cc1Nc1ncc2cc(-c3c(Cl)c(OC)cc(OC)c3Cl)c3nccn3c2n1 [compound 60] | 50 to 500 nM
C#Cc1ccc(Nc2ncc3cc(-c4c(Cl)c(OC)cc(OC)c4Cl)c4nccn4c3n2)c(NC(=O)C=C)c1 [compound 16] | 50 to 500 nM
C=CC(=O)Nc1cc(N2CCOCC2)cnc1Nc1ncc2cc(-c3c(Cl)c(OC)cc(OC)c3Cl)c3nccn3c2n1 [compound 70] | 50 to 500 nM
C=CC(=O)N[C@H]1CCOC[C@H]1Nc1ncc2cc(-c3c(Cl)c(OC)cc(OC)c3Cl)c3nccn3c2n1 [Synthesis Example 4, N-((3S,4S)-3-((6-(2,6-dichloro-3,5-dimethoxyphenyl)imidazo[1′,2′:1,6]pyrido[2,3-d]pyrimidin-2-yl)amino)tetrahydro-2H-pyran-4-yl)acrylamide] | 50 to 500 nM
COc1cc(OC)c(Cl)c(-c2cc3cnc(Nc4ccc(N5CCOCC5)cc4NC(=O)/C=C/CN(C)C)nc3n3ccnc23)c1Cl [compound 34] | 50 to 500 nM
C=CC(=O)Nc1cc(N(C)C)ccc1Nc1ncc2cc(-c3c(Cl)c(OC)cc(OC)c3Cl)c3nccn3c2n1 [compound 24] | < 50 nM
C=CC(=O)Nc1cc(N2CCCC2)ccc1Nc1ncc2cc(-c3c(Cl)c(OC)cc(OC)c3Cl)c3nccn3c2n1 [compound 33] | 50 to 500 nM
C=CC(=O)Nc1cc(-c2ncc3cc(-c4c(Cl)c(OC)cc(OC)c4Cl)c4nccn4c3n2)cc(N2CCOCC2)c1 [compound 82] | > 500 nM
C=CC(=O)NC1CCCCC1Nc1ncc2cc(-c3c(Cl)c(OC)cc(OC)c3Cl)c3nccn3c2n1 (stereo not shown) [compound 2] | 50 to 500 nM
C=CC(=O)Nc1cc(F)ccc1Nc1ncc2cc(-c3c(Cl)c(OC)cc(OC)c3Cl)c3nccn3c2n1 [compound 14] | 50 to 500 nM

Second part, the molecule after the results:

IC50 | Compound
< 50 nM | C=CC(=O)Nc1ccc(N2CCN(CC)CC2)cc1Nc1ncc2cc(-c3c(Cl)c(OC)cc(OC)c3Cl)c3nccn3c2n1 [compound 13]
50 to 500 nM | C=CC(=O)Nc1cc(CC)ccc1Nc1ncc2cc(-c3c(Cl)c(OC)cc(OC)c3Cl)c3nccn3c2n1 [compound 20]
50 to 500 nM | C=CC(=O)Nc1ccc(F)cc1Nc1ncc2cc(-c3c(Cl)c(OC)cc(OC)c3Cl)c3nccn3c2n1 [compound 12]
< 50 nM | C=CC(=O)Nc1cc(N2CCN(CC3CC3)CC2)ccc1Nc1ncc2cc(-c3c(Cl)c(OC)cc(OC)c3Cl)c3nccn3c2n1 [compound 43]
50 to 500 nM | C=CC(=O)Nc1cc2c(cc1Nc1ncc3cc(-c4c(Cl)c(OC)cc(OC)c4Cl)c4nccn4c3n1)CCC2 [compound 57]
< 50 nM | C=CC(=O)Nc1cn(C)nc1Nc1cc2c(cn1)cc(-c1c(Cl)c(OC)cc(OC)c1Cl)c1nccn12 [compound 87]
< 50 nM | C=CC(=O)Nc1cc(N2CC(O)C2)ccc1Nc1ncc2cc(-c3c(Cl)c(OC)cc(OC)c3Cl)c3nccn3c2n1 [compound 45]
50 to 500 nM | C=CC(=O)Nc1cc(N2CCOCC2)cc(OC)c1Nc1ncc2cc(-c3c(Cl)c(OC)cc(OC)c3Cl)c3nccn3c2n1 [compound 65]
50 to 500 nM | C=CC(=O)N[C@H]1CCOC[C@H]1Nc1ncc2cc(-c3c(F)c(OC)cc(OC)c3F)c3nccn3c2n1 [compound 5]
< 50 nM | C=CC(=O)Nc1ccccc1Nc1ncc2cc(-c3c(F)c(OC)cc(OC)c3F)c3nccn3c2n1 [compound 75]
50 to 500 nM | C=CC(=O)Nc1cc(N2CCN(C3CC3)CC2)ccc1Nc1ncc2cc(-c3c(Cl)c(OC)cc(OC)c3Cl)c3nccn3c2n1 [compound 51]
< 50 nM | C=CC(=O)Nc1cc(N2CCOC(C)C2)ccc1Nc1ncc2cc(-c3c(Cl)c(OC)cc(OC)c3Cl)c3nccn3c2n1 (stereo not shown) [compound 49]
< 50 nM | C=CC(=O)Nc1cc(N2CCN(CCOC)CC2)ccc1Nc1ncc2cc(-c3c(Cl)c(OC)cc(OC)c3Cl)c3nccn3c2n1 [compound 46]
50 to 500 nM | C=CC(=O)NC1CCCC1Nc1ncc2cc(-c3c(Cl)c(OC)cc(OC)c3Cl)c3nccn3c2n1 (stereo not shown) [Synthesis Example 1, N-(2-((6-(2,6-dichloro-3,5-dimethoxyphenyl)imidazo[1′,2′:1,6]pyrido[2,3-d]pyrimidin-2-yl)amino)cyclopentyl)acrylamide]
< 50 nM | C=CC(=O)Nc1cc(N2CCN(C(=O)C3CC3)CC2)ccc1Nc1ncc2cc(-c3c(Cl)c(OC)cc(OC)c3Cl)c3nccn3c2n1 [compound 42]
< 50 nM | C=CC(=O)Nc1cc(N2C[C@@H](C)O[C@@H](C)C2)ccc1Nc1cc2c(cn1)cc(-c1c(Cl)c(OC)cc(OC)c1Cl)c1nccn12 [compound 84]
< 50 nM | C=CC(=O)Nc1cc(N2CCC(OC)CC2)ccc1Nc1ncc2cc(-c3c(Cl)c(OC)cc(OC)c3Cl)c3nccn3c2n1 [compound 40]
50 to 500 nM | C=CC(=O)Nc1cc(C(C)C)ccc1Nc1ncc2cc(-c3c(Cl)c(OC)cc(OC)c3Cl)c3nccn3c2n1 [compound 22]
50 to 500 nM | C=CC(=O)Nc1cc(OC2CCN(CC(F)(F)F)CC2)ccc1Nc1ncc2cc(-c3c(Cl)c(OC)cc(OC)c3Cl)c3nccn3c2n1 [compound 55]
< 50 nM | C=CC(=O)Nc1cc(C2CCN(C)CC2)ccc1Nc1ncc2cc(-c3c(Cl)c(OC)cc(OC)c3Cl)c3nccn3c2n1 [compound 23]
50 to 500 nM | C=CC(=O)Nc1cccnc1Nc1ncc2cc(-c3c(Cl)c(OC)cc(OC)c3Cl)c3nccn3c2n1 [compound 69]
< 50 nM | C=CC(=O)Nc1cc(OCCN(C)C)ccc1Nc1ncc2cc(-c3c(Cl)c(OC)cc(OC)c3Cl)c3nccn3c2n1 [compound 30]
< 50 nM | C=CC(=O)Nc1cc(OC(C)C)ccc1Nc1ncc2cc(-c3c(Cl)c(OC)cc(OC)c3Cl)c3nccn3c2n1 [compound 28]
< 50 nM | COc1cc(OC)c(Cl)c(-c2cc3cnc(Nc4ccc(N5CCOCC5)cc4NC(=O)/C=C\Cl)nc3n3ccnc23)c1Cl [compound 47]
< 50 nM | C=CC(=O)Nc1cc(N2CCC[C@H]2COC)ccc1Nc1ncc2cc(-c3c(Cl)c(OC)cc(OC)c3Cl)c3nccn3c2n1 [compound 50]
< 50 nM | C=CC(=O)Nc1cccc(Nc2ncc3cc(-c4c(F)c(OC)cc(OC)c4F)c4nccn4c3n2)c1 [compound 74]
